Here are results for 25 compounds from ChEMBL document CHEMBL1127534, “2-Alkynyl derivatives of adenosine-5'-N-ethyluronamide: selective A2 adenosine receptor agonists with potent inhibitory activity on platelet aggregation” (J Med Chem, 1994).

Data set [1] concerns the target T1, Adenosine receptor A1 (Rattus norvegicus, UniProt P25099).
T1 sequence (P25099 whole entry): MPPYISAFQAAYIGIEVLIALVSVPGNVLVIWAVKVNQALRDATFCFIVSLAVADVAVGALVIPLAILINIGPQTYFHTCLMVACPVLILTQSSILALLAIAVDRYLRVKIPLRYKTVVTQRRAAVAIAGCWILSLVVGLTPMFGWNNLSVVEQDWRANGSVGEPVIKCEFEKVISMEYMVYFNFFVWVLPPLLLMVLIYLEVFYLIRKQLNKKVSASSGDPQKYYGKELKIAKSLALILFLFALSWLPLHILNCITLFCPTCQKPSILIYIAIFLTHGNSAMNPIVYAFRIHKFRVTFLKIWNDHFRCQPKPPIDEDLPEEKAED
Put plainly: Negative chronotropic activity for A1 Adenosine receptor in spontaneously beating rat atria. Format: functional.

Data set [2] in a line: Hydrophobicity index (k') (RP-HPLC). Type of data set: ADME.
The species named for a further data set is Oryctolagus cuniculus. In words: Antiaggregatory effect was evaluated on rabbit platelet aggregation induced by ADP. Type of data set: functional.
Data set [3] addresses T2, Adenosine A2 receptor (Rattus norvegicus, UniProt P29276+P30543).
Description: Affinity for the adenosine A2 receptor was evaluated in a competition assay in rat striatum using [3H]-CGS- 21680 as radioligand
Data set [4] has as its target T1, Adenosine receptor A1. In words: biochemical.
Description: Affinity for adenosine A1 receptor assayed in a competition assay in rat brain using [3H]-CHA as radioligand
Data set [5] has as its target T2, Adenosine A2 receptor. Put plainly: Vasorelaxant activity for A2 Adenosine receptor as vasodilation in rat aorta.
Data set [6] addresses T1, Adenosine receptor A1. In words: Negative chronotropic activity via A1 Adenosine receptor was tested in spontaneously beating rat atria. Type of data set: functional.
The target of data set [7] is T2, Adenosine A2 receptor. This is another data set of the same source.
Description: Negative chronotropic activity via A2 Adenosine receptor was tested monitoring vasodilation in rat aorta
The target of data set [8] is T2, Adenosine A2 receptor. Put plainly: Affinity for A2 Adenosine receptor in rat striatum using [3H]-CGS- 21680. Type of data set: tissue-based.
The target in data set [9] is T1, Adenosine receptor A1. Put plainly: Affinity for A1 Adenosine receptor in rat brain using [3H]CHA. Format: tissue-based.

The structures appear in SMILES notation.

The term EC50 denotes the concentration needed to bring the measured effect to its halfway point. High values mean a need for much substance, low ones an effect from little substance. A word on the Ki: it is a measure of affinity in units of concentration, obtained from inhibition or displacement. A low value points to a stronger hold on the target. For `CCNC(=O)[C@H]1O[C@@H](n2cnc3c(N)nc(C#CC4(O)CCCC4)nc32)[C@H](O)[C@@H]1O`, the EC50 was 475 nM at Adenosine receptor A1 [1] and 159 nM on Adenosine A2 receptor [5]. Moreover, in [2], the “k'” value amounted to 0.77. Besides, the Ratio in the data set listed under Oryctolagus cuniculus is on record as 5.3. Further, the Ki on Adenosine A2 receptor [3] turned out to be 0.6 nM; at Adenosine receptor A1 [4] it was 4 nM.

On to `CCNC(=O)[C@H]1O[C@@H](n2cnc3c(N)nc(C#CC(OCC)OCC)nc32)[C@H](O)[C@@H]1O`, for which the values for the EC50 at Adenosine receptor A1 [6] and at Adenosine A2 receptor [7] were more than 10000 nM and 382 nM, respectively. Also, the “k'” value in [2] stood at 1.63. The Ki came out at 441 nM at Adenosine A2 receptor [3] and 656 nM on Adenosine receptor A1 [4].

On to `CCCCC#Cc1nc(N)c2ncn([C@@H]3O[C@H](C(=O)NCC)[C@@H](O)[C@H]3O)c2n1`, for which the figures for the EC50 on Adenosine receptor A1 [6] and at Adenosine A2 receptor [7] were more than 10000 nM and 596 nM, respectively. Besides, the “k'” value in [2] is on record as 2.57. In addition, the Ki turned out to be 2.2 nM at Adenosine A2 receptor [3] and 130 nM at Adenosine receptor A1 [4].

For the compound `CCNC(=O)[C@H]1O[C@@H](n2cnc3c(N)nc(C#CCCCO)nc32)[C@H](O)[C@@H]1O`, the EC50 at Adenosine receptor A1 [6] is more than 10000 nM; on Adenosine A2 receptor [7] it was 300 nM. The “k'” value in data set [2] is on record as 0.22. For the same compound, the Ki was found to be 11.3 nM at Adenosine A2 receptor [3] and 99.9 nM on Adenosine receptor A1 [4].

`CCNC(=O)[C@H]1O[C@@H](n2cnc3c(N)nc(C#CCN)nc32)[C@H](O)[C@@H]1O`: the EC50 on Adenosine receptor A1 [6] came out at 730 nM; at Adenosine A2 receptor [7] it was 564 nM. In addition, the “k'” value in data set [2] stood at 0.15. The inhibitory constant (Ki) was 38.3 nM at Adenosine A2 receptor [3] and 48.6 nM at Adenosine receptor A1 [4].

As for `CCNC(=O)[C@H]1O[C@@H](n2cnc3c(N)nc(C#CC(O)c4ccccc4)nc32)[C@H](O)[C@@H]1O` (stereo partly specified), the figures for the EC50 on Adenosine receptor A1 [6] and on Adenosine A2 receptor [7] were 110 nM and 123 nM, respectively. For the same compound, in data set [2], the “k'” value was determined as 0.82. The Ki at Adenosine A2 receptor [3] turned out to be 0.9 nM; at Adenosine receptor A1 [4] it was 2.5 nM.

For `CCNC(=O)[C@H]1O[C@@H](n2cnc3c(N)nc(C#CC(C)(O)c4ccccc4)nc32)[C@H](O)[C@@H]1O` (stereo partly specified), the EC50 at Adenosine receptor A1 [6] turned out to be 2430 nM; at Adenosine A2 receptor [7], 456 nM. Further, the “k'” value in data set [2] amounted to 1.32. Besides, the Ki at Adenosine A2 receptor [3] was 1.7 nM; on Adenosine receptor A1 [4], 32.7 nM.

For the compound `C=C(C)C#Cc1nc(N)c2ncn([C@@H]3O[C@H](C(=O)NCC)[C@@H](O)[C@H]3O)c2n1`, the EC50 on Adenosine receptor A1 [6] is more than 10000 nM; at Adenosine A2 receptor [7], 1200 nM. In [2], the “k'” value was 1.27. Besides, the Ki turned out to be 27.3 nM at Adenosine A2 receptor [3] and 167 nM at Adenosine receptor A1 [4].

With `CCNC(=O)[C@H]1O[C@@H](n2cnc3c(N)ncnc32)[C@H](O)[C@@H]1O` [NECA], the “k'” value in data set [2] amounted to 0.19.

For `OC[C@H]1O[C@@H](n2cnc3c(NC4CCCC4)nc(Cl)nc32)[C@H](O)[C@@H]1O`, in [2], the “k'” value turned out to be 2.76.

Consider `CCNC(=O)[C@H]1O[C@@H](n2cnc3c(N)nc(C#CC(C)(O)CC(C)C)nc32)[C@H](O)[C@@H]1O` (stereo partly specified), for which the EC50 at Adenosine receptor A1 [6] is more than 10000 nM; on Adenosine A2 receptor [7] it was 338 nM. Also, the “k'” value in data set [2] was found to be 1.84. Moreover, the Ki at Adenosine A2 receptor [3] amounted to 0.5 nM; at Adenosine receptor A1 [4], 3 nM.

As to `CCNC(=O)[C@H]1O[C@@H](n2cnc3c(N)nc(C#CC4=CCCCC4)nc32)[C@H](O)[C@@H]1O`, the EC50 at Adenosine receptor A1 [1] is more than 10000 nM; at Adenosine A2 receptor [5] it was 3030 nM. Further, the “k'” value in [2] was found to be 3.9. Also, the Ratio in the data set filed under Oryctolagus cuniculus is reported as 0.03. Besides, the Ki on Adenosine A2 receptor [3] was found to be 61.3 nM; on Adenosine receptor A1 [4], 3300 nM.

`CCNC(=O)[C@H]1O[C@@H](n2cnc3c(N)nc(C#CCCOC4CCCCO4)nc32)[C@H](O)[C@@H]1O` (stereo partly specified): the EC50 on Adenosine receptor A1 [1] was more than 10000 nM; at Adenosine A2 receptor [5] it was 115 nM. Also, in [2], the “k'” value was 1.32. In addition, the Ratio in the data set filed under Oryctolagus cuniculus came out at 0.3. In addition, the Ki at Adenosine A2 receptor [3] worked out at 5 nM; at Adenosine receptor A1 [4], 267 nM.

For `CCNC(=O)[C@H]1O[C@@H](n2cnc3c(N)nc(C#CCCCCO)nc32)[C@H](O)[C@@H]1O`, the figures for the EC50 at Adenosine receptor A1 [6] and at Adenosine A2 receptor [7] were more than 10000 nM and 391 nM, respectively. For the same compound, the “k'” value in [2] stood at 0.35. For the same compound, the Ki at Adenosine A2 receptor [3] was 6.8 nM; on Adenosine receptor A1 [4], 42.1 nM.

For `CCNC(=O)[C@H]1O[C@@H](n2cnc3c(N)nc(C#CC(O)CC)nc32)[C@H](O)[C@@H]1O` (stereo partly specified), the concentration giving a half-maximal response (EC50) was 153 nM at Adenosine receptor A1 [6] and 69.3 nM at Adenosine A2 receptor [7]. Further, the “k'” value in [2] amounted to 0.42. Further, the Ki was determined as 12.4 nM at Adenosine A2 receptor [8] and 20.4 nM on Adenosine receptor A1 [9].

With `CCNC(=O)[C@H]1O[C@@H](n2cnc3c(N)nc(C#CC4(N)CCCCC4)nc32)[C@H](O)[C@@H]1O`, the values for the half-maximal effective concentration (EC50) on Adenosine receptor A1 [1] and on Adenosine A2 receptor [5] were more than 10000 nM and 779 nM, respectively. For the same compound, the “k'” value in [2] came out at 0.6. Besides, the Ratio in the data set listed under Oryctolagus cuniculus amounted to 0.6. For the same compound, the Ki at Adenosine A2 receptor [3] is 39.4 nM; at Adenosine receptor A1 [4] it was 398 nM.

Take `CCNC(=O)[C@H]1O[C@@H](n2cnc3c(N)nc(C#CCCO)nc32)[C@H](O)[C@@H]1O`: the EC50 is more than 10000 nM on Adenosine receptor A1 [6] and 59.4 nM at Adenosine A2 receptor [7]. Moreover, the “k'” value in data set [2] was found to be 0.2. The figures for the inhibition constant (Ki) at Adenosine A2 receptor [3] and on Adenosine receptor A1 [4] were 10.8 nM and 47.3 nM, respectively.

Turning to `CCNC(=O)[C@H]1O[C@@H](n2cnc3c(N)nc(C#CCN(C)C)nc32)[C@H](O)[C@@H]1O`, the EC50 at Adenosine receptor A1 [6] amounted to 332 nM; on Adenosine A2 receptor [7], 140 nM. In data set [2], the “k'” value stood at 0.37. Besides, the figures for the Ki on Adenosine A2 receptor [3] and at Adenosine receptor A1 [4] were 2.3 nM and 27.9 nM, respectively.

Consider `CCNC(=O)[C@H]1O[C@@H](n2cnc3c(N)nc(C#CC(C)O)nc32)[C@H](O)[C@@H]1O` (stereo partly specified), for which the concentration giving a half-maximal response (EC50) on Adenosine receptor A1 [6] turned out to be 657 nM; on Adenosine A2 receptor [7], 828 nM. Also, the “k'” value in data set [2] is reported as 0.23. Further, the Ki on Adenosine A2 receptor [3] was found to be 7.6 nM; on Adenosine receptor A1 [4] it was 11.1 nM.

For the compound `C#Cc1nc(N)c2ncn([C@@H]3O[C@H](C(=O)NCC)[C@@H](O)[C@H]3O)c2n1`, the EC50 is 167 nM at Adenosine receptor A1 [6] and 440 nM at Adenosine A2 receptor [7]. The “k'” value in data set [2] was found to be 0.25. Besides, the Ki stood at 57.8 nM on Adenosine A2 receptor [3] and 35.4 nM on Adenosine receptor A1 [4].

For `CCNC(=O)[C@H]1O[C@@H](n2cnc3c(N)nc(C#CCCCC#N)nc32)[C@H](O)[C@@H]1O`, the results for the EC50 on Adenosine receptor A1 [6] and on Adenosine A2 receptor [7] were 2370 nM and 111 nM, respectively. In addition, the “k'” value in [2] is listed as 0.32. In addition, the Ki was found to be 4.7 nM on Adenosine A2 receptor [3] and 184 nM on Adenosine receptor A1 [4].

Turning to `CCNC(=O)[C@H]1O[C@@H](n2cnc3c(N)nc(C#CCCCCl)nc32)[C@H](O)[C@@H]1O`, the EC50 at Adenosine receptor A1 [6] is 2520 nM; on Adenosine A2 receptor [7], 715 nM. Further, the “k'” value in [2] worked out at 1.35. Moreover, the results for the Ki on Adenosine A2 receptor [3] and at Adenosine receptor A1 [4] were 1 nM and 37.9 nM, respectively.

`CCNC(=O)[C@H]1O[C@@H](n2cnc3c(N)nc(C#CCO)nc32)[C@H](O)[C@@H]1O`: the EC50 is 84.2 nM on Adenosine receptor A1 [6] and 367 nM on Adenosine A2 receptor [7]. Also, the “k'” value in data set [2] was found to be 0.17. Moreover, the Ki at Adenosine A2 receptor [3] was 9.1 nM; at Adenosine receptor A1 [4], 14.1 nM.

For `CCNC(=O)[C@H]1O[C@@H](n2cnc3c(N)nc(C#CC4CCCCC4)nc32)[C@H](O)[C@@H]1O`, the EC50 at Adenosine receptor A1 [6] was more than 10000 nM; at Adenosine A2 receptor [7], 329 nM. Moreover, the “k'” value in data set [2] was 4.54. Moreover, the Ki on Adenosine A2 receptor [3] came out at 9.2 nM; at Adenosine receptor A1 [4], 236 nM.

As for `CCNC(=O)[C@H]1O[C@@H](n2cnc3c(N)nc(C#CCC(C)O)nc32)[C@H](O)[C@@H]1O` (stereo partly specified), the EC50 came out at 6050 nM at Adenosine receptor A1 [6] and 1650 nM on Adenosine A2 receptor [7]. The “k'” value in data set [2] amounted to 0.29. The Ki at Adenosine A2 receptor [3] was determined as 56.4 nM; on Adenosine receptor A1 [4], 69.6 nM.
